Patent US20230174571A1, “METHOD OF TREATING SHIP1-MEDIATED DISEASES USING PELOROL DERIVATIVES” (Zebrapeutics Inc., priority 2020, published 2023)

How the values were obtained:
[1] = system: LPS-stimulated TNFα production; experiment: Measurement of TNFα production in LPS-stimulated SHIP1 KO cells reconstituted with SHIP1; assay type: cell-based, mouse; settings: 10 ng/ml LPS
Protocol: Cell lines. J16 and J17 cell lines derived from SHIP1+/+and −/−BMDM respectively were previously described (Ming-Lum et al., 2012) and cultured in Mac media (IMDM supplemented with 10% (v/v) FCS, 10 μM β-mercaptoethanol, 150 μM monothioglycolate and 1 mM L-glutamine). J17 cells expressing wild type and mutant His6-SHIP1, Clover-SHIP1 or mRuby2-STAT3 constructs were generated by lentivirus mediated gene transfer as described (Cheung et al., 2013). Transduced cells were selected with 5 μg/ml blasticidin. Clover-SHIP1 and mRuby2-STAT3 cells were further subjected to fluorescent activated cell sorting to select the brightest cells on a FACS Aria II cytometer.
Measurement of TNFα production. Cells were seeded at 50×10^4 cells per well in a 96-well tissue culture plate and allowed to adhere overnight. Media was changed the next day 1 hour prior to stimulation. Cells were stimulated with 1 or 10 ng/ml LPS+/−various concentrations of IL10 for 1 hour. Supernatant was collected and secreted TNFα protein levels were measured using a BD OptEIA Mouse TNFα Enzyme-Linked Immunosorbent Assay (ELISA) kit (BD Biosciences, Mississauga, ON). Triplicates wells were used for each stimulation condition. IC50 values were calculated from three independent experiments and differences in IL10 […] values from cells expressing SHIP1 mutants vs SHIP1 WT protein were analyzed by one-way ANOVA.

[2] = system: MM.1S cells; experiment: MM.1S tumour model in NOD/SCID mice; assay type: in vivo, mouse; settings: NOD/SCID mice bearing MM.1S tumours; administered through drinking water
Protocol: The IBD model mice were dosed with 2 or 3 mg/kg of compounds of the present disclosure, for example compound I-1. The MM model mice were dosed with about 20 to about 50 mg/kg of compounds of the present disclosure, for example compound I-1. The appropriate amount of 5 mg/mL PBS solution with 5% v/v Cremophore EL/5% v/v ethanol as prepared above was diluted into the mice's drinking water.
MM.1S cells expressing firefly luciferase were injected along with Matrigel basement membrane into the upper flank of NOD/SCID mice and allowed to establish for two weeks. Compound I-1 or vehicle (n=4) were administered through drinking water (as described in General Methods).

[3] = target: T1, SHIP1 (Mus musculus, UniProt Q9ES52); settings: binds to the same SHIP1 C2 domain as PI(3,4)P2; Ong et al., 2007; cited from earlier work
T1 sequence (Q9ES52 1-1191): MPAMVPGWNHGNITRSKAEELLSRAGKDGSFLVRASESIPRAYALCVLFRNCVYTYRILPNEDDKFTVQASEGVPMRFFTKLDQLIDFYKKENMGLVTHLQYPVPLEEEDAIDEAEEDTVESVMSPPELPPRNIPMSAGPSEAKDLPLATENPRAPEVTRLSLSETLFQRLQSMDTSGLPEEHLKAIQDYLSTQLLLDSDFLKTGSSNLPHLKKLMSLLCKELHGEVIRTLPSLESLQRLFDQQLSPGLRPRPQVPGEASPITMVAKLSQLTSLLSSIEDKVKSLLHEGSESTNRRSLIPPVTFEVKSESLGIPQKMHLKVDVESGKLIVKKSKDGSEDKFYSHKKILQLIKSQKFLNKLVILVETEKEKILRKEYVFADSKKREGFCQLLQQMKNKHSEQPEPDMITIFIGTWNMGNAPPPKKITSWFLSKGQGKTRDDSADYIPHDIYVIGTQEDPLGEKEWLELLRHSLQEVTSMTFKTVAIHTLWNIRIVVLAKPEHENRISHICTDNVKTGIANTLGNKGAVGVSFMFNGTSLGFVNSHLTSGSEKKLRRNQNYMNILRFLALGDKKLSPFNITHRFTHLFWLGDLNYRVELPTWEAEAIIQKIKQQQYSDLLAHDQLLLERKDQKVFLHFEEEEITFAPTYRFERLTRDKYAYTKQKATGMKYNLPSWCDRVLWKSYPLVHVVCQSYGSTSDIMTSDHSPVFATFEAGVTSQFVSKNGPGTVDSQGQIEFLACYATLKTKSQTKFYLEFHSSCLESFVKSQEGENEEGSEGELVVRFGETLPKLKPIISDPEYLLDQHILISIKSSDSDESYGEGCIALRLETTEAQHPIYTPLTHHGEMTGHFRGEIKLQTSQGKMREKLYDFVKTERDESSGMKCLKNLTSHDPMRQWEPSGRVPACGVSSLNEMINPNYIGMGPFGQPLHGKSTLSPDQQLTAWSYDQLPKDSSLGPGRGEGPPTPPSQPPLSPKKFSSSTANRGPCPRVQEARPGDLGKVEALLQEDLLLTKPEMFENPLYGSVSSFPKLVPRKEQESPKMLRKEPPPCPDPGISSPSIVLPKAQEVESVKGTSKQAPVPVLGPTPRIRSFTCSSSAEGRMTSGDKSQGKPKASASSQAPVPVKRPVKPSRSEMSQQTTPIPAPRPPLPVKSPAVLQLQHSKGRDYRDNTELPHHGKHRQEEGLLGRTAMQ

IL10: anti-inflammatory cytokine interleukin-10
TNFα production ([1]; cells expressing K681A SHIP1): not
TNFα production ([1]; cells expressing wild-type SHIP1): inhibited TNFα production efficiently

Cc1cc(O)cc2c1C1(C)CCC3C(C)(C)CCCC3(C)C1C2 (stereo not shown) [Compound I-1]
tumour mass (bioluminescence imaging) [2]: effectively reduces tumour mass
SHIP1 functional activity [3]: increases SHIP1 functional activity
